Values of other authors as cited in patent US20200236944A1, “DIURON-CONTAINING FRUIT THINNING AGENT” (ADAMA AGAN LTD., priority 2017, published 2020).

Assays:
[1] = tested on: orange trees; conditions: 2500 ppm diuron
[2] = tested on: peach leaves; conditions: 100 ppm diuron

CN(C)C(=O)Nc1ccc(Cl)c(Cl)c1 [diuron, 3-(3,4-dichlorophenyl)-1,1-dimethylurea]
Fruiting of orange trees [1]: partially prevent the fruiting | Photosynthesis rate for peaches [2]: long-lasting and thus undesirably low
